Read-outs that look alike come from different tables or passages of the source.
What was measured:
MIA PaCa-2 = assay: 72-hour CellTiter-Glo 2.0 growth inhibition screen (single agent, 9x9 combination dose matrix); assay type: cell-based;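 on Best CI Level: inhibition effect level at which the best CI was calculated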
NCI-H1792 = assay: as above; assay type: cell-based;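 on Best CI Level: inhibition effect level at which the best CI was calculated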
NCI-H23 = assay: as above; assay type: cell-based;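 on Best CI Level: inhibition effect level at which the best CI was calculated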
NCI-H1373 = assay: as above; assay type: cell-based; conditions: for Emax: NCI-H1373;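 on Best CI Level: inhibition effect level at which the best CI was calculated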
NCI-H2030 = assay: as above; assay type: cell-based; conditions: for Emax: NCI-H2030;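 on Best CI Level: inhibition effect level at which the best CI was calculated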
Huh-7 xenografts = assay: CIVO intratumoral microinjection, Huh-7 xenografts; assay type: in vivo; conditions: Huh-7 liver cancer model
Description: FIG. 6 depicts the CIVO injection array.
CC3 is not elevated over background levels at any injection site.

[1] = Homo sapiens, MIA PaCa-2, Pancreas, Additional Single Agent Responses (inhibition, % I), 72 h
[2] = MIA PaCa-2 (KRAS G12C), enhancer + MEI-522 (Voruciclib), 72 h;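 on Best CI Level: inhibition effect level at which the best CI was calculated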
[3] = MIA PaCa-2, Pancreas, Additional Single Agent Responses (inhibition, % I), 72 h
[4] = MIA PaCa-2, Pancreas, growth inhibition (GI), AUC, single agent, 72 h
[5] = enhancer combined with MEI-522 (Voruciclib), MIA PaCa-2 (Pancreas), 72 hours, inhibition data
[6] = NCl-H1792 (KRAS G12C), enhancer + MEI-522 (Voruciclib), 72 h
[7] = NCl-H1792, Lung, Additional Single Agent Responses (inhibition, % I), 72 h
[8] = NCl-H1792, Lung, growth inhibition (GI), AUC, single agent, 72 h
[9] = enhancer combined with MEI-522 (Voruciclib), NCl-H1792 (Lung), 72 hours, inhibition data
[10] = Homo sapiens, NCI-H23, NCl-H23, Lung, Additional Single Agent Responses (inhibition, % I), 72 h
[11] = NCl-H23 (KRAS G12C), enhancer + MEI-522 (Voruciclib), 72 h
[12] = NCl-H23, Lung, Additional Single Agent Responses (inhibition, % I), 72 h
[13] = NCl-H23, Lung, growth inhibition (GI), AUC, single agent, 72 h
[14] = enhancer combined with MEI-522 (Voruciclib), NCl-H23 (Lung), 72 hours, inhibition data
[15] = NCl-H1373 (KRAS G12C), enhancer + MEI-522 (Voruciclib), 72 h
[16] = NCl-H1373, Lung, Additional Single Agent Responses (inhibition, % I), 72 h
[17] = NCl-H1373, Lung, growth inhibition (GI), AUC, single agent, 72 h
[18] = enhancer combined with MEI-522 (Voruciclib), NCl-H1373 (Lung), 72 hours, inhibition data
[19] = NCl-H2030 (KRAS G12C), enhancer + MEI-522 (Voruciclib), 72 h
[20] = NCl-H2030, Lung, Additional Single Agent Responses (inhibition, % I), 72 h
[21] = NCl-H2030, Lung, growth inhibition (GI), AUC, single agent, 72 h
[22] = enhancer combined with MEI-522 (Voruciclib), NCl-H2030 (Lung), 72 hours, inhibition data
[23] = MIA PaCa-2, Pancreas, growth inhibition (GI) curve, single agent, 72 h
[24] = NCl-H1792, Lung, growth inhibition (GI) curve, single agent, 72 h
[25] = NCl-H23, Lung, growth inhibition (GI) curve, single agent, 72 h
[26] = NCl-H1373, Lung, growth inhibition (GI) curve, single agent, 72 h
[27] = NCl-H2030, Lung, growth inhibition (GI) curve, single agent, 72 h

C=CC(=O)N1CCN(c2nc(=O)n(-c3c(C)ccnc3C(C)C)c3nc(-c4c(O)cccc4F)c(F)cc23)[C@@H](C)C1 [AMG510]
EC50 (MIA PaCa-2; [1]): 5.7 nM
IC50 (MIA PaCa-2; [1]): 14.7 nM
Emax (MIA PaCa-2; Homo sapiens, MIA PaCa-2, Pancreas, Additional Single Agent Responses, 72 h, read-out: Max Response (% I)): 63%
GI50 (MIA PaCa-2; Homo sapiens, MIA PaCa-2, Pancreas, growth inhibition (GI) curve, single agent, 72 h): 9.2 nM
Emax (MIA PaCa-2; Homo sapiens, MIA PaCa-2, Pancreas, growth inhibition (GI), single agent, 72 h, read-out: Max Response (% GI)): 77%
Best CI (MIA PaCa-2; [2]): 0.65
Bliss Volume (MIA PaCa-2; [2]): 3.75
HSA volume (MIA PaCa-2; [2]): 5.03
Loewe Volume (MIA PaCa-2; [2]): 4.68
Synergy Score (MIA PaCa-2; [2]): 6.04
Response Area (MIA PaCa-2; [3]): 3.12
Response Area (MIA PaCa-2; [4]): 3.77
Best CI (MIA PaCa-2; [5]): 0.60
Best CI Level (MIA PaCa-2; [5]): 75
Bliss Volume (MIA PaCa-2; [5]): 0.19
HSA volume (MIA PaCa-2; [5]): 2.76
Loewe Volume (MIA PaCa-2; [5]): 2.52
Synergy Score (MIA PaCa-2; [5]): 2.16
EC50 (NCI-H1792; Homo sapiens, NCI-H1792, NCl-H1792, Lung, Additional Single Agent Responses (inhibition, % I), 72 h): 4.2 nM
Emax (NCI-H1792; Homo sapiens, NCI-H1792, NCl-H1792, Lung, Additional Single Agent Responses, 72 h, read-out: Max Response (% I)): 29%
Emax (NCI-H1792; Homo sapiens, NCI-H1792, NCl-H1792, Lung, growth inhibition (GI), single agent, 72 h, read-out: Max Response (% GI)): 37%
Best CI (NCI-H1792; [6]): 0.36
Bliss Volume (NCI-H1792; [6]): 5.76
HSA volume (NCI-H1792; [6]): 3.59
Loewe Volume (NCI-H1792; [6]): 4.64
Synergy Score (NCI-H1792; [6]): 3.62
Response Area (NCI-H1792; [7]): 1.05
Response Area (NCI-H1792; [8]): 1.34
Best CI (NCI-H1792; [9]): 0.46
Bliss Volume (NCI-H1792; [9]): 2.25
HSA volume (NCI-H1792; [9]): 2.86
Loewe Volume (NCI-H1792; [9]): 3.31
Synergy Score (NCI-H1792; [9]): 1.87
Best CI Level (NCI-H1792; enhancer combined with MEI-522 (Voruciclib), NCl-H1792 (Lung), 72 hours, inhibition data, unit assumed): 35%
EC50 (NCI-H23; [10]): 6.7 nM
IC50 (NCI-H23; [10]): 157 nM
Emax (NCI-H23; Homo sapiens, NCI-H23, NCl-H23, Lung, Additional Single Agent Responses, 72 h, read-out: Max Response (% I)): 56%
GI50 (NCI-H23; Homo sapiens, NCI-H23, NCl-H23, Lung, growth inhibition (GI) curve, single agent, 72 h): 23.2 nM
Emax (NCI-H23; Homo sapiens, NCI-H23, NCl-H23, Lung, growth inhibition (GI), single agent, 72 h, read-out: Max Response (% GI)): 71%
Best CI (NCI-H23; [11]): 0.76
Bliss Volume (NCI-H23; [11]): 8.97
HSA volume (NCI-H23; [11]): 6.92
Loewe Volume (NCI-H23; [11]): 6.28
Synergy Score (NCI-H23; [11]): 8.27
Response Area (NCI-H23; [12]): 2.82
Response Area (NCI-H23; [13]): 3.60
Best CI (NCI-H23; [14]): 0.53
Best CI Level (NCI-H23; [14]): 80
Bliss Volume (NCI-H23; [14]): 1.69
HSA volume (NCI-H23; [14]): 4.54
Loewe Volume (NCI-H23; [14]): 3.98
Synergy Score (NCI-H23; [14]): 3.46
EC50 (NCI-H1373; Homo sapiens, NCI-H1373, 72 h, NCl-H1373, Lung, Additional Single Agent Responses (inhibition, % I), 72 h): 2.5 nM
EC50 (NCI-H1373; Homo sapiens, NCI-H1373, 72 h, NCl-H1373, Lung, growth inhibition (GI) curve, single agent, 72 h): 2.1 nM
Emax (NCI-H1373; Homo sapiens, NCl-H1373, Lung, Additional Single Agent Responses, 72 h, read-out: Max Response (% I)): 49%
Emax (NCI-H1373; Homo sapiens, NCl-H1373, Lung, growth inhibition (GI), single agent, 72 h, read-out: Max Response (% GI)): 65%
Best CI (NCI-H1373; [15]): 0.28
Bliss Volume (NCI-H1373; [15]): 2.91
HSA volume (NCI-H1373; [15]): 1.67
Loewe Volume (NCI-H1373; [15]): 2.62
Synergy Score (NCI-H1373; [15]): 4.10
Response Area (NCI-H1373; [16]): 2.05
Response Area (NCI-H1373; [17]): 2.56
Best CI (NCI-H1373; [18]): 0.93
Best CI Level (NCI-H1373; [18]): 20
Bliss Volume (NCI-H1373; [18]): −1.68
HSA volume (NCI-H1373; [18]): 0.90
Loewe Volume (NCI-H1373; [18]): 0.62
Synergy Score (NCI-H1373; [18]): 1.25
EC50 (NCI-H2030; Homo sapiens, NCI-H2030, 72 h, NCl-H2030, Lung, Additional Single Agent Responses (inhibition, % I), 72 h): 4.3 nM
EC50 (NCI-H2030; Homo sapiens, NCI-H2030, 72 h, NCl-H2030, Lung, growth inhibition (GI) curve, single agent, 72 h): 4.4 nM
Emax (NCI-H2030; Homo sapiens, NCl-H2030, Lung, Additional Single Agent Responses, 72 h, read-out: Max Response (% I)): 38%
Emax (NCI-H2030; Homo sapiens, NCl-H2030, Lung, growth inhibition (GI), single agent, 72 h, read-out: Max Response (% GI)): 47%
Best CI (NCI-H2030; [19]): 0.47
Bliss Volume (NCI-H2030; [19]): 6.35
HSA volume (NCI-H2030; [19]): 4.90
Loewe Volume (NCI-H2030; [19]): 4.51
Synergy Score (NCI-H2030; [19]): 5.13
Response Area (NCI-H2030; [20]): 1.65
Response Area (NCI-H2030; [21]): 2.05
Best CI (NCI-H2030; [22]): 0.70
Best CI Level (NCI-H2030; [22]): 50
Bliss Volume (NCI-H2030; [22]): 1.77
HSA volume (NCI-H2030; [22]): 3.51
Loewe Volume (NCI-H2030; [22]): 3.26
Synergy Score (NCI-H2030; [22]): 2.04

CN1CCN(c2ccc(OC(F)(F)F)c(Nc3ncc4c(n3)-c3c(c(C(N)=O)nn3CCO)CC4)c2)CC1 [Onvansertib]
apoptotic cells (CC3) (Huh-7 xenografts): do not result in an increase in apoptotic cells

CN1CC[C@@H](c2c(O)cc(O)c3c(=O)cc(-c4ccc(C(F)(F)F)cc4Cl)oc23)[C@@H]1CO [MEI-522(Voruciclib)]
EC50 (MIA PaCa-2; [3]): 894 nM
IC50 (MIA PaCa-2; [3]): 1070 nM
Response Area (MIA PaCa-2; [3]): 2.64
Max Response (% I) (MIA PaCa-2; MIA PaCa-2, Pancreas, Additional Single Agent Responses, 72 h): 85 % I
EC50 (MIA PaCa-2; [23]): 1130 nM
GI50 (MIA PaCa-2; [23]): 868 nM
Response Area (MIA PaCa-2; [4]): 3.63
Max Response (% GI) (MIA PaCa-2; MIA PaCa-2, Pancreas, growth inhibition (GI), single agent, 72 h): 116 % GI
EC50 (NCI-H1792; [7]): 1350 nM
IC50 (NCI-H1792; [7]): 1360 nM
Response Area (NCI-H1792; [7]): 2.83
Max Response (% I) (NCI-H1792; NCl-H1792, Lung, Additional Single Agent Responses, 72 h): 98 % I
EC50 (NCI-H1792; [24]): 1910 nM
GI50 (NCI-H1792; [24]): 1440 nM
Response Area (NCI-H1792; [8]): 5.24
Max Response (% GI) (NCI-H1792; NCl-H1792, Lung, growth inhibition (GI), single agent, 72 h): 192 % GI
EC50 (NCI-H23; [12]): 1130 nM
IC50 (NCI-H23; [12]): 1180 nM
Response Area (NCI-H23; [12]): 2.83
Max Response (% I) (NCI-H23; NCl-H23, Lung, Additional Single Agent Responses, 72 h): 96 % I
EC50 (NCI-H23; [25]): 1770 nM
GI50 (NCI-H23; [25]): 1260 nM
Response Area (NCI-H23; [13]): 5.00
Max Response (% GI) (NCI-H23; NCl-H23, Lung, growth inhibition (GI), single agent, 72 h): 181 % GI
EC50 (NCI-H1373; [16]): 1030 nM
IC50 (NCI-H1373; [16]): 1230 nM
Response Area (NCI-H1373; [16]): 2.58
Max Response (% I) (NCI-H1373; NCl-H1373, Lung, Additional Single Agent Responses, 72 h): 86 % I
EC50 (NCI-H1373; [26]): 1390 nM
GI50 (NCI-H1373; [26]): 972 nM
Response Area (NCI-H1373; [17]): 4.24
Max Response (% GI) (NCI-H1373; NCl-H1373, Lung, growth inhibition (GI), single agent, 72 h): 147 % GI
EC50 (NCI-H2030; [20]): 1050 nM
IC50 (NCI-H2030; [20]): 1060 nM
Response Area (NCI-H2030; [20]): 2.92
Max Response (% I) (NCI-H2030; NCl-H2030, Lung, Additional Single Agent Responses, 72 h): 98 % I
EC50 (NCI-H2030; [27]): 1680 nM
GI50 (NCI-H2030; [27]): 1130 nM
Response Area (NCI-H2030; [21]): 5.28
Max Response (% GI) (NCI-H2030; NCl-H2030, Lung, growth inhibition (GI), single agent, 72 h): 188 % GI

— US20240016781A1, “TREATMENT OF KRAS MUTANT CANCERS” (MEI Pharma, Inc., priority 2020, published 2024)
